The results in this text go back to article PMC10191376, “Characterization of the L-arabinofuranose-specific GafABCD ABC transporter essential for L-arabinose-dependent growth of the lignocellulose-degrading bacterium Shewanella sp. ANA-3” (Microbiology, 2023).

The target of experiment [1] is GafASw (Shewana3_2073). Nature of the experiment: ITC, intrinsic fluorescence ([…]), DSF. Format: binding, Shewanella sp. ANA-3. For orientation: In ITC the heat of successive injections is recorded.
In experiment [2] the target is T1, GafASm (Smb_21587) (Sinorhizobium meliloti, UniProt Q926G2).
T1 construct: gene SM_b21587
Nature of the experiment: DSF thermal shift (ΔTm […] °C at […]). In kind it is binding. The note with it: read-out: ΔT m (°C) at 1.2 mM [ligand] / GafASm.

Experiment [3] has as its target T1, GafASm (Smb_21587). Nature of the experiment: DSF thermal shift (ΔTm […] °C at […]). Format: binding. The note with it: read-out: ΔT m (°C) at 1.2 mM [ligand] / GafASm. This is another data set of the same source.
Experiment [4] has as its target T1, GafASm (Smb_21587). Nature of the experiment: DSF thermal shift (ΔTm […] °C at […]), weak. In kind it is binding. The note with it: read-out: ΔT m (°C) at 1.2 mM [ligand] / GafASm.
The target in experiment [5] is GafASw (Shewana3_2073). Nature of the experiment: crystal structure ([…] Å), ITC, intrinsic fluorescence, DSF. In kind it is binding, Shewanella sp. ANA-3.
Experiment [6] deals with T1, GafASm (Smb_21587). Kind of experiment: DSF thermal shift (ΔTm […] °C at […]). In kind it is binding. The note with it: read-out: ΔT m (°C) at 1.2 mM [ligand] / GafASm. This is another data set of the same source.

The Kd is the free concentration of one partner at which half of the binding sites on the other are occupied at equilibrium, for simple one-to-one binding. Low readings indicate tighter binding, high ones weaker binding.

T1 sequence (Q926G2 entry or part of it): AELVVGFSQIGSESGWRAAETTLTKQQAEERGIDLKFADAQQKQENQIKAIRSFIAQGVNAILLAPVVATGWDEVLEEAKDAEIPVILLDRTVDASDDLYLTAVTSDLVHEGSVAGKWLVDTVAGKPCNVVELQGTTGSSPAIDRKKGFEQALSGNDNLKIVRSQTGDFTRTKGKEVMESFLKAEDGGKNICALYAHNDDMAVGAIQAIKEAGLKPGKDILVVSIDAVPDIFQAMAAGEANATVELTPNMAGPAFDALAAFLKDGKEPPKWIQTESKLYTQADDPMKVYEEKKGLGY

On to `OC[C@H]1OC(O)[C@H](O)[C@H](O)[C@@H]1O` (stereo partly drawn) [D-allose], for which the Kd at GafASw (Shewana3_2073) [1] was 27.4 ± 4.32 µM.
For the compound `C[C@H]1OC(O)[C@H](O)[C@@H](O)[C@H]1O` (stereo partly drawn) [D-fucose], at GafASm (Smb_21587) [2], the ΔTm at 1200 µM came out at 11.8 ± 0.2 °C.
As to `OC[C@H]1OC(O)[C@H](O)[C@@H](O)[C@H]1O` (stereo partly drawn) [D-galactose], the ΔTm at 1200 µM on GafASm (Smb_21587) [3] was 11.6 ± 0.2 °C.
Consider `OC[C@H]1OC(O)[C@@H](O)[C@@H](O)[C@H]1O` (stereo partly drawn) [D-talose], for which, on GafASm (Smb_21587) [4], the ΔTm at 1200 µM amounted to 3.4 ± 0.2 °C.
On to `OC[C@@H]1OC(O)[C@H](O)[C@H]1O` (stereo partly drawn) [L-arabinofuranose], for which the Kd on GafASw (Shewana3_2073) [5] amounted to 5.8 ± 0.51 µM.
With `OC1OC[C@H](O)[C@H](O)[C@H]1O` (stereo partly drawn) [L-arabinose], on GafASm (Smb_21587) [6], the ΔTm at 1200 µM came to 14.4 ± 0.2 °C.
